US20090156471A1, “Use of anti-amyloid agents for treating and typing pathogen infections” (RAMOT AT TEL AVIV UNIVERSITY LTD., priority 2005, published 2009)
Entries after “also recorded” stand apart in the source; their conditions may differ.

Key:
[1] = TEM analysis of peptide self-assembly into fibrillar structures; format: physicochemical; settings: for self-assembly / fibril formation observed by TEM: peptide in water 10 to 50 mg/ml, room temperature, 3-6 days (micrographs: 50 mg/ml, 1 week)
Protocol: TEM analysis—In all examined cases, peptides were dissolved in water to a concentration of 10 to 50 mg/ml and incubated at room-temperature (RT). Fresh stocks were prepared for each and every experiment. […] Following 1 minute, excess fluid was removed, and the grid was then negatively stained with 10 μl of 2% uranyl-acetate in water. Following 2 minutes, excess fluid was removed from the grid. Samples were viewed in JEOL 1200 EX transmission electron microscope. In the experiments shown, 50 mg/ml peptides were used and micrographs were taken following 1 week. Bar represents 100 nm.

[2] = Circular dichroism (CD) spectra and copper binding
Protocol: FIGS. 2a-b are graphs showing copper binding to QHGGGN (SEQ ID NO: 5) peptide repeat. […] The titration of metal ions to the oligopeptide was performed using small aliquots from stock aqueous solutions of 25 mM CuCl2.2H2O. CD spectrum (250-800 nm) of QHGGGN (0.5 mM, pH 7.5) was measured with the addition of Cu^2+ in increments of 0.0125 mM (as a minimum) of CuCl2 (0.5 μl) from 0 up to 0.65 mM. Typically, 50 mM HEPES pH 7.5 buffer was used for CD studies. Spectra were obtained using an AVIV spectrapolarimeter and a 5 mm (FIG. 2a) and 10 mm (FIG. 2b) path length cuvettes.
Circular dichroism (CD) spectra and Copper binding—Circular Dichroism (CD) spectra, 250-800 nm, of the curli QHGGGN hexapeptide repeat in the absence and presence were preformed. […] The titration of metal ions to the oligopeptide was performed using small aliquots from stock aqueous solutions of 25 mM CuCl2-2H2O. CD spectrum (250-800 nm) of QHGGGN (0.5 mM, pH 7.5) was measured with the addition of Cu^2+ in increments of 0.0125 mM (as a minimum) of CuCl2 (0.5 μl) from 0 up to 0.65 mM. 50 mM HEPES pH 7.5 buffer was used for CD studies.

[3] = system: curli-expressing E. coli XL1-Blue(pMRInv) binding to bovine fibronectin; assay: Fibronectin binding (adhesion of bacteria to fibronectin coated wells); format: cell-based, Escherichia coli; settings: 0.3 mM peptide, A405, FIG. 3b
Protocol: The adhesion of bacteria to fibronectin coated wells was determined by measuring absorbance at 405 nm. For (A) and (B), each column is the average of three experiments.
Fibronectin binding—Binding was quantified using the protocol described by Gophna et al (32). Briefly, wells of microtiter plates were coated with 100 μl of 5 μg/ml solution of bovine fibronectin (Sigma). The two strains of bacteria were grown to mid-exponential phase (A600, 0.5-0.6) with the various peptides in LB, harvested and suspended in saline. Wells were blocked with 200 μl milk (3%) for 2 hours at RT. Two hundreds micro-liter saline containing 5×10^8 cells/ml bacteria (A600, 0.9) were added to the wells with 0.3 mM of the suitable peptide and were incubated at RT for 3 h. Wells were washed twice with 200 μl PBS-T (0.05% Tween) and once with 200 μl PBS. The optical density of adherent bacteria was determined by the use of a microplate reader (ELISA) (A405), subtracting the optical density of an empty coated well.

[4] = system: E. coli XL1-Blue(pMRInv) internalization into HEK293 cells; assay: Internalization assay (antibiotic protection assay) in HEK293 cells; settings: 0.4 mM peptide, HEK293, 3 h at 37° C., gentamicin protection
Protocol: Internalization assay—Epithelial cells were grown overnight in 24-well plates to 80% confluence (˜10^5 cells per well). Bacteria were inoculated in LB broth and grown at 37° C. for 16 h, diluted 100-fold, and grown to mid-exponential phase (A600, 0.4) in the presence or absence of 0.4 mM peptide inhibitor. Bacteria were then diluted to A600, 0.1 in LB and 20 μl were added to each well with epithelial monolayer for 3 h incubation at 37° C. […] Cells were washed once with PBS, pH 7.3, and PBS containing 100 μg/ml gentamicin was added. After 1.5 h incubation, the cells were washed twice in PBS, and lysed by 5 min incubation with ice-cold 0.5% triton X-100. Appropriate bacterial dilutions were plated to determine the number of viable internalized bacteria. E. coli XL1-Blue was maintained on Luria-Bertani (LB) agar and E. coli XL1-Blue(pMRInv) was maintained on LB agar containing 30 μg/ml kanamycin. […]
For that purpose, an antibiotic protection assay was effected using HEK293 cell-line. […] Following exposure to the antibiotic gentamicin, eukaryotic cells were analyzed for bacteria internalization rate by the determination of the colony forming units (cfu) of the surviving bacteria (FIG. 4a).

[5] = system: curli-expressing E. coli K-12 XL1-Blue(pMRInv); assay: Quantitative Congo red (CR) binding of curli expressing bacteria; settings: 0.3 mM peptide, FIG. 3a
Protocol: Binding units represent the decrease in absorbance (A487) of the CR solution after incubation with bacteria.
Congo red binding—Bacterial inoculums were grown in 6 ml LB medium for 5-7 hours at 37° C. in the presence or absence of 0.3 mM peptide inhibitor, until the cultures reached A600 of approximately 1.2. Each culture was then pelleted (1 min/13200×g) and resuspended in 6 ml saline (0.8% NaCl). Three double dilutions were performed for each culture and bacterial concentrations were determined at A600. Each dilution was divided into 3 microtubes (1 ml for each) and pelleted by centrifugation for 2 min/13200×g. A 0.004% solution of CR (in saline) was prepared and optical density at 487 nm was measured against a saline background. One thousand, 500 and 200 μl of CR solution were then added to each dilution triplets, the bacteria were well resuspended in the dye and left for 10 min incubation at RT. Next, a second centrifugation (2 min/13200×g) was performed and the supernatants containing the remaining dye were recovered. The optical density at 487 nm of each supernatant was determined and compared to the initial absorbance.
Inhibition was examined by directly applying the putative peptide inhibitor at time zero to a growing culture in liquid medium at 37° C. Cells analyzed for CR binding when reached optical density (A600) of approximately 1.2 absorbance units (AU).

[6] = biological target: the molecule itself; assay: TEM of peptide self-assembly

## QHGGGN [curli hexapeptide repeat]
[1]; electron microscopy, 48 hours with equimolar CuCl2 in 50 mM HEPES, pH 7.5, room-temperature
  fibrillization in the presence of copper: did not induce fibrillization
[1]
  self-assembly / fibril formation observed by TEM: assembled into fibrillar structures
[1]; listed as NH2-QHGGGN-COOH
  self-assembly / fibril formation observed by TEM: well-ordered fibrillar structures
[2]; CD signal at 590 nm, peptide 0.5 mM, pH 7.5, 50 mM HEPES, CuCl2 0 up to 0.65 mM
  Cu^2+ binding stoichiometry: equimolar binding stoichiometry; also recorded: single Cu^2+ ion binding for each peptide molecule
[2]; binding curve sigmoid at concentrations in the hundreds of μM range
  affinity of copper binding for a single repeat: not high

## GQNHGG
[1]
  self-assembly / fibril formation observed by TEM: fibril-like structured

## QFGGGN
[3]
  bacterial adhesion to fibronectin coated wells: no significant effect
[1]; mixture with QAGGGN, 3-6 days incubation, TEM
  fibril formation in a mixture of QFGGGN and QAGGGN peptides: not inhibited
[1]
  self-assembly / fibril formation observed by TEM: assembled into fibrillar structures
[1]; listed as NH2-QFGGGN-COOH
  self-assembly / fibril formation observed by TEM: well-ordered fibrillar structures
[4]
  amount of internalized bacteria (cfu) in eukaryotic cells: did not interfere with bacterial invasion process
[5]
  binding of CR in comparison to XL1-Blue(pMRInv) grown in absence of peptide: no significant difference

## HGQGNG
[1]; TEM, FIG. 1c
  aggregation potential (amount of aggregates) of scrambled QHGGGN sequences: highly aggregative and much more abundant
[1]
  self-assembly / fibril formation observed by TEM: amorphous aggregates

## NHQGGG
[1]
  self-assembly / fibril formation observed by TEM: small amount but highly ordered assemblies

## QAGGGN
[3]
  bacterial adhesion to fibronectin coated wells: no significant effect
[1]; following 30 days of incubation
  structures observed by TEM after prolonged incubation: only minor amounts of amorphous aggregates
[1]
  self-assembly / fibril formation observed by TEM: ability was lost; also recorded: no ordered structures could be detected
[5]
  binding of CR in comparison to XL1-Blue(pMRInv) grown in absence of peptide: no significant difference

B1: QHGGGN peptide (NH2-QHGGGN-COOH) (peptide)
peptide: H-QHGGGN-OH
notes: also called curli QHGGGN hexapeptide repeat
[6]
  binding result: binds

B2: QFGGGN peptide (NH2-QFGGGN-COOH) (peptide)
peptide: H-QFGGGN-OH
notes: also called curlin repeat; oligopeptide repeat QFGGGN
[6]
  binding result: binds
